Numbered stars: 1 amine (or outer) side, 2 acyl side, 3 side chain; on linkers, the order of the positions; unused ones are H or OH. Bridge positions count the residues as written; N and C are the ends. Square brackets hold non-standard residues; d marks the D form. Side chains are listed from the residue outwards. Peptide text beside a SMILES is read from it. I, II: the chains in the order shown. * marks the point of attachment. C18 diacid = O=C(O)CCCCCCCCCCCCCCCCC(=O)*; γGlu = O=C(O)[C@H](CCC(=O)[*:2])N[*:1]; Ac4c = NC1(C(=O)O)CCC1; AEEA = NCCOCCOCC(=O)O; Aib = CC(C)(N)C(=O)O

In US9474790B2, “Stable, protracted GLP-1/glucagon receptor co-agonists for medical use” (Novo Nordisk A/S, priority 2013, dated 2016) one finds IC50 data, which are given here for six molecules.

The experiment concerns the target T1, human glucagon receptor (Homo sapiens, UniProt P47871).
T1 construct: expressed in transfected cells; host or cells: BHK cells (parent BHK570, CRE luciferase clone BHK/KZ10-20-48), clone pLJ6'-4-25
Nature of the experiment: Glucagon receptor binding, 125I-glucagon displacement SPA on isolated membranes. The settings on record: displacement of 125I-glucagon from membranes; read-out: IC50 GlucR. The essentials: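 Membranes from BHK cells stably expressing human glucagon receptor incubated 2 h at 25 °C with [125I]-glucagon (25 μl of 480 pM solution) and serial compound dilutions in WGA SPA format, pH 7.4 buffer with 0.1% ovalbumin. Albumin at max 0.001% or 0.2% final. IC50 from non-linear regression.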

T1 sequence (P47871 26-477): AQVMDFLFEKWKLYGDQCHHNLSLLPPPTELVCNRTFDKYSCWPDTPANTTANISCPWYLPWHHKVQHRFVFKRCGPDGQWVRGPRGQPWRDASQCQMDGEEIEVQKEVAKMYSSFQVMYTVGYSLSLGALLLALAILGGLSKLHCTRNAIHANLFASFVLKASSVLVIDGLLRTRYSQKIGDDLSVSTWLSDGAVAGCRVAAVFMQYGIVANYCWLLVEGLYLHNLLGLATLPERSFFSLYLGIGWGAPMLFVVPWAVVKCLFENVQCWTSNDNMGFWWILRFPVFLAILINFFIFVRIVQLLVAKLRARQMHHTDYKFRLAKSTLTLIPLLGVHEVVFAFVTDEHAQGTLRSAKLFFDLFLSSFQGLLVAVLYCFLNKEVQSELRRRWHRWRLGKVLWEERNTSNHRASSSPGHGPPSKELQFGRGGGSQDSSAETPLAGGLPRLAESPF

As to `CC(C)C[C@H](NC(=O)[C@H](Cc1ccc(O)cc1)NC(=O)[C@H](CCCCN)NC(=O)[C@H](CO)NC(=O)[C@H](CC(C)C)NC(=O)[C@H](CC(=O)O)NC(=O)[C@H](CO)NC(=O)[C@@H](NC(=O)[C@H](Cc1ccccc1)NC(=O)[C@@H](NC(=O)CNC(=O)[C@H](CCC(N)=O)NC(=O)C1(NC(=O)[C@@H](N)Cc2c[nH]cn2)CCC1)[C@@H](C)O)[C@@H](C)O)C(=O)N[C@@H](CCC(=O)O)C(=O)N[C@@H](CO)C(=O)N[C@@H](CCCCN)C(=O)N[C@@H](CCCNC(=N)N)C(=O)N[C@@H](C)C(=O)N[C@@H](CCCNC(=N)N)C(=O)N[C@@H](CCC(=O)O)C(=O)N[C@@H](Cc1ccccc1)C(=O)N[C@H](C(=O)N[C@@H](CCC(N)=O)C(=O)N[C@@H](Cc1c[nH]c2ccccc12)C(=O)N[C@@H](CC(C)C)C(=O)N[C@@H](CC(C)C)C(=O)N[C@@H](CCCCNC(=O)CNC(=O)[C@H](CO)NC(=O)[C@H](CCC(=O)O)NC(=O)CNC(=O)[C@H](CO)NC(=O)CC[C@H](NC(=O)CC[C@H](NC(=O)CCCCCCCCCCCCCCCCC(=O)O)C(=O)O)C(=O)O)C(=O)N[C@H](C(N)=O)[C@@H](C)O)C(C)C` [Example 36, N^ε28-[2-[[(2S)-2-[[(2S)-4-carboxy-2-[[2-[[(2S)-2-[[(4S)-4-carboxy-4-[[(4S)-4-carboxy-4-(17-carboxyheptadecanoylamino)butanoyl]amino]butanoyl]amino]-3-hydroxypropanoyl]amino]acetyl]amino]butanoyl]amino]-3-hydroxypropanoyl]amino]acetyl]-[Acb2,Leu10,Glu15,Lys17, Arg20,Glu21,Leu27,Lys28]-Glucagon amide] (I: H-H[Ac4c]QGTFTSDLSKYLESKRAREFVQWLLKT-NH2 / II: {C18 diacid-γGlu-γGlu}-SGESG; amide I:28-II:C; N-terminus assumed), the half-inhibitory concentration (IC50) was found to be 0.6 nM. For `CC(C)C[C@H](NC(=O)[C@H](Cc1ccc(O)cc1)NC(=O)[C@H](CCCCN)NC(=O)[C@H](CO)NC(=O)[C@H](CC(C)C)NC(=O)[C@H](CC(=O)O)NC(=O)[C@H](CO)NC(=O)[C@@H](NC(=O)[C@H](Cc1ccccc1)NC(=O)[C@@H](NC(=O)CNC(=O)[C@H](CCC(N)=O)NC(=O)C(C)(C)NC(=O)[C@@H](N)Cc1c[nH]cn1)[C@@H](C)O)[C@@H](C)O)C(=O)N[C@@H](CC(=O)O)C(=O)N[C@@H](C)C(=O)N[C@@H](CCCNC(=N)N)C(=O)N[C@@H](CCCNC(=N)N)C(=O)N[C@@H](C)C(=O)N[C@@H](CCCNC(=N)N)C(=O)N[C@@H](CCC(=O)O)C(=O)N[C@@H](Cc1ccccc1)C(=O)N[C@H](C(=O)N[C@@H](CCC(N)=O)C(=O)N[C@@H](Cc1c[nH]c2ccccc12)C(=O)N[C@@H](CC(C)C)C(=O)N[C@@H](CC(C)C)C(=O)N[C@@H](CC(N)=O)C(=O)N[C@@H](CCCCNC(=O)CC[C@H](NC(=O)CC[C@H](NC(=O)COCCOCCNC(=O)CC[C@H](NC(=O)CCCCCCCCCCCCCCCCC(=O)O)C(=O)O)C(=O)O)C(=O)O)C(N)=O)C(C)C` [Example 39, N^ε29-[(4S)-4-carboxy-4-[[(4S)-4-carboxy-4-[[2-[2-[2-[[(4S)-4-carboxy-4-(17-carboxyheptadecanoylamino)butanoyl]amino]ethoxy]ethoxy]acetyl]amino]butanoyl]amino]butanoyl]-[Aib2,Leu10,Ala16,Arg20,Glu21,Leu27,Lys29]-Glucagon amide] (H-H[Aib]QGTFTSDLSKYLDARRAREFVQWLLNK([γGlu-γGlu-AEEA-γGlu-C18 diacid])-NH2; N-terminus assumed) the value was 5.6 nM. To `CC(C)C[C@H](NC(=O)[C@H](Cc1ccc(O)cc1)NC(=O)[C@H](CCCCN)NC(=O)[C@H](CO)NC(=O)[C@H](CC(C)C)NC(=O)[C@H](CC(=O)O)NC(=O)[C@H](CO)NC(=O)[C@@H](NC(=O)[C@H](Cc1ccccc1)NC(=O)[C@@H](NC(=O)CNC(=O)[C@H](CCC(N)=O)NC(=O)C(C)(C)NC(=O)[C@@H](N)Cc1c[nH]cn1)[C@@H](C)O)[C@@H](C)O)C(=O)N[C@@H](CCC(=O)O)C(=O)N[C@@H](CO)C(=O)N[C@@H](CCCNC(=N)N)C(=O)N[C@@H](CCCNC(=N)N)C(=O)N[C@@H](C)C(=O)N[C@@H](CCCNC(=N)N)C(=O)N[C@@H](CCC(=O)O)C(=O)N[C@@H](Cc1ccccc1)C(=O)N[C@H](C(=O)N[C@@H](CCC(N)=O)C(=O)N[C@@H](Cc1c[nH]c2ccccc12)C(=O)N[C@@H](CC(C)C)C(=O)N[C@@H](CC(C)C)C(=O)N[C@@H](CCCCNC(=O)CC[C@H](NC(=O)CC[C@H](NC(=O)CC[C@H](NC(=O)CCCCCCCCCCCCCCCCC(=O)O)C(=O)O)C(=O)O)C(=O)O)C(=O)N[C@H](C(N)=O)[C@@H](C)O)C(C)C` [Example 41, N^ε28-[(4S)-4-carboxy-4-[[(4S)-4-carboxy-4-[[(4S)-4-carboxy-4-(17-carboxyheptadecanoylamino)butanoyl]amino]butanoyl]amino]butanoyl]-[Aib2,Leu10,Glu15, Arg20,Glu21,Leu27,Lys28]-Glucagon amide] (H-H[Aib]QGTFTSDLSKYLESRRAREFVQWLLK([γGlu-γGlu-γGlu-C18 diacid])T-NH2; N-terminus assumed) belongs 1.2 nM; to `CC(C)C[C@H](NC(=O)[C@H](Cc1ccc(O)cc1)NC(=O)[C@H](CCCCN)NC(=O)[C@H](CO)NC(=O)[C@H](CC(C)C)NC(=O)[C@H](CC(=O)O)NC(=O)[C@H](CO)NC(=O)[C@@H](NC(=O)[C@H](Cc1ccccc1)NC(=O)[C@@H](NC(=O)CNC(=O)[C@H](CCC(N)=O)NC(=O)C(C)(C)NC(=O)[C@@H](N)Cc1c[nH]cn1)[C@@H](C)O)[C@@H](C)O)C(=O)N[C@@H](CCC(=O)O)C(=O)N[C@@H](CO)C(=O)N[C@@H](CCCNC(=N)N)C(=O)N[C@@H](CCCNC(=N)N)C(=O)N[C@@H](C)C(=O)N[C@@H](CCCNC(=N)N)C(=O)N[C@@H](CCC(=O)O)C(=O)N[C@@H](Cc1ccccc1)C(=O)N[C@H](C(=O)N[C@@H](CCC(N)=O)C(=O)N[C@@H](Cc1c[nH]c2ccccc12)C(=O)N[C@@H](CC(C)C)C(=O)N[C@@H](CC(C)C)C(=O)N[C@@H](CCCCNC(=O)COCCOCCNC(=O)COCCOCCNC(=O)CC[C@H](NC(=O)CC[C@H](NC(=O)CC[C@H](NC(=O)CCCCCCCCCCCCCCCCC(=O)O)C(=O)O)C(=O)O)C(=O)O)C(=O)N[C@H](C(N)=O)[C@@H](C)O)C(C)C` [Example 42, N^ε28-[2-[2-[2-[[2-[2-[2-[[(4S)-4-carboxy-4-[[(4S)-4-carboxy-4-[[(4S)-4-carboxy-4-(17-carboxyheptadecanoylamino)butanoyl]amino]butanoyl]amino]butanoyl]amino]ethoxy]ethoxy]acetyl]amino]ethoxy]ethoxy]acetyl]-[Aib2,Leu10,Glu15,Arg20,Glu21,Leu27,Lys28]-Glucagon amide] (H-H[Aib]QGTFTSDLSKYLESRRAREFVQWLLK([AEEA-AEEA-γGlu-γGlu-γGlu-C18 diacid])T-NH2; N-terminus assumed), 38.2 nM; to `CC(C)C[C@H](NC(=O)[C@H](Cc1ccc(O)cc1)NC(=O)[C@H](CCCCN)NC(=O)[C@H](CO)NC(=O)[C@H](CC(C)C)NC(=O)[C@H](CC(=O)O)NC(=O)[C@H](CO)NC(=O)[C@@H](NC(=O)[C@H](Cc1ccccc1)NC(=O)[C@@H](NC(=O)CNC(=O)[C@H](CCC(N)=O)NC(=O)C(C)(C)NC(=O)[C@@H](N)Cc1c[nH]cn1)[C@@H](C)O)[C@@H](C)O)C(=O)N[C@@H](CC(=O)O)C(=O)N[C@@H](C)C(=O)N[C@@H](CCCNC(=N)N)C(=O)N[C@@H](CCCNC(=N)N)C(=O)N[C@@H](C)C(=O)N[C@@H](CCCNC(=N)N)C(=O)N[C@@H](CCC(=O)O)C(=O)N[C@@H](Cc1ccccc1)C(=O)N[C@H](C(=O)N[C@@H](CCC(N)=O)C(=O)N[C@@H](Cc1c[nH]c2ccccc12)C(=O)N[C@@H](CC(C)C)C(=O)N[C@@H](CC(C)C)C(=O)N[C@@H](CCCCNC(=O)CC[C@H](NC(=O)CC[C@H](NC(=O)COCCOCCNC(=O)COCCOCCNC(=O)CC[C@H](NC(=O)CCCCCCCCCCCCCCCCC(=O)O)C(=O)O)C(=O)O)C(=O)O)C(=O)N[C@H](C(N)=O)[C@@H](C)O)C(C)C` [Example 43, N^ε28-[(4S)-4-carboxy-4-[[(4S)-4-carboxy-4-[[2-[2-[2-[[2-[2-[2-[[(4S)-4-carboxy-4-(17-carboxyheptadecanoylamino)butanoyl]amino]ethoxy]ethoxy]acetyl]amino]ethoxy]ethoxy]acetyl]amino]butanoyl]amino]butanoyl]-[Aib2,Leu10,Ala16,Arg20,Glu21,Leu27,Lys28]-Glucagon amide] (H-H[Aib]QGTFTSDLSKYLDARRAREFVQWLLK([γGlu-γGlu-AEEA-AEEA-γGlu-C18 diacid])T-NH2; N-terminus assumed), 5.6 nM. Turning to `CC(C)C[C@H](NC(=O)[C@H](Cc1ccc(O)cc1)NC(=O)[C@H](CCCCN)NC(=O)[C@H](CO)NC(=O)[C@H](CC(C)C)NC(=O)[C@H](CC(=O)O)NC(=O)[C@H](CO)NC(=O)[C@@H](NC(=O)[C@H](Cc1ccccc1)NC(=O)[C@@H](NC(=O)CNC(=O)[C@H](CCC(N)=O)NC(=O)C1(NC(=O)[C@@H](N)Cc2c[nH]cn2)CCC1)[C@@H](C)O)[C@@H](C)O)C(=O)N[C@@H](CCC(=O)O)C(=O)N[C@@H](CO)C(=O)N[C@@H](CCCNC(=N)N)C(=O)N[C@@H](CCCNC(=N)N)C(=O)N[C@@H](C)C(=O)N[C@@H](CCCNC(=N)N)C(=O)N[C@@H](CCC(=O)O)C(=O)N[C@@H](Cc1ccccc1)C(=O)N[C@H](C(=O)N[C@@H](CCC(N)=O)C(=O)N[C@@H](Cc1c[nH]c2ccccc12)C(=O)N[C@@H](CC(C)C)C(=O)N[C@@H](CC(C)C)C(=O)N[C@@H](CCCCNC(=O)CC[C@H](NC(=O)CC[C@H](NC(=O)COCCOCCNC(=O)COCCOCCNC(=O)CC[C@H](NC(=O)CCCCCCCCCCCCCCCCC(=O)O)C(=O)O)C(=O)O)C(=O)O)C(=O)N[C@H](C(N)=O)[C@@H](C)O)C(C)C` [Example 44, N^ε28-[(4S)-4-carboxy-4-[[(4S)-4-carboxy-4-[[2-[2-[2-[[2-[2-[2-[[(4S)-4-carboxy-4-(17-carboxyheptadecanoylamino)butanoyl]amino]ethoxy]ethoxy]acetyl]amino]ethoxy]ethoxy]acetyl]amino]butanoyl]amino]butanoyl]-[Acb2,Leu10,Glu15,Arg20,Glu21,Leu27,Lys28]-Glucagon amide] (H-H[Ac4c]QGTFTSDLSKYLESRRAREFVQWLLK([γGlu-γGlu-AEEA-AEEA-γGlu-C18 diacid])T-NH2; N-terminus assumed), the half-inhibitory concentration (IC50) was 7.2 nM.
